The values that follow come from patent publication US8987195B2 (priority 2012, dated 2015).

Where two headings read alike, the source gives them in different places.

For series [1] the following is noted: rcm bond.
The conditions of series [2]: from Boc-(2S)-2-aminonon-8-enoyl-Hyp-(vinylACCA)-OMe?; rcm bond; 15-membered ring; Hoveyda-Grubbs 1st gen; DCM; 9.85 mM; 40.0 °C.
Series [3] concerns HCV genotype 1b replicon. In words: HCV replicon assay, genotype 1b replicon EC50. Format: cell-based, Hepatitis C virus. To be noted: Hepatitis C virus, genotype 1b replicon; read-out: EC50 [gt-1b]. Summed up:
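Assay format: compound titration on stable replicon cells, no G418 during treatment, 24 to 48 hours. Lysates were assayed for replicon RNA (hybridization/protection or TaqMan) or luciferase; EC50 fitted to four parameters against DMSO.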
For orientation: In antiviral work, replicon cells carry a viral genome segment that copies itself.

Series [4] deals with HCV NS3/4A protease genotype 1b (Hepatitis C virus genotype 1b, UniProt P26663). In words: HCV NS3/4A protease time-resolved fluorescence (TRF) assay, Ki against genotype 1b. To be noted: IC50 [gt-1b] (nM), NS3/4A genotype 1b, enzyme 0.2 nM. The series is classed as biochemical. Summed up: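 Enzyme 0.2 nM 1b / 0.4 nM A156T / 0.025 nM 3a; 30 min preinc. w/ cpd; 25 nM TRF peptide; 2.5 h RT; ex 340/em 615 time-delayed; 4-param IC50 → Ki = IC50/(1+[S]/KM).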

As a reminder, the EC50 is the concentration at which the effect is half-maximal. The IC50 is the concentration that inhibits the measured activity by half. Higher therefore signals weaker potency in that assay.

Turning to `CC(C)(C)OC(=O)N[C@H]1CCCCC/C=C\[C@@H]2C[C@@]2(C(=O)NS(=O)(=O)C2(C)CC2)NC(=O)[C@@H]2C[C@]3(CCc4c(c(CO)nc5ccccc45)O3)CN2C1=O`, the ring closure, yield of all isomers in series [1] (from C=CCCCCC[C@H](NC(=O)OC(C)(C)C)C(=O)N1C[C@@]2(CCc3c(c(CO)nc4ccccc34)O2)C[C@H]1C(=O)N[C@]1(C(=O)NS(=O)(=O)C2(C)CC2)C[C@H]1C=C, Zhan's catalyst, DCE, 2.0 mM, 65.0 °C, 2.0 h) turned out to be 45.1%.

`COC(=O)[C@@]12C[C@H]1/C=C\CCCCC[C@H](NC(=O)OC(C)(C)C)C(=O)N1C[C@H](O)C[C@H]1C(=O)N2` yielded a ring closure, isolated yield in series [2] of 74%. Moreover, the ring closure, yield of all isomers in series [1] (from C=CCCCCC[C@H](NC(=O)OC(C)(C)C)C(=O)N1C[C@H](O)C[C@H]1C(=O)N[C@]1(C(=O)OC)C[C@H]1C=C, Grubbs-Hoveyda 1st generation catalyst, DCM, 9.85 mM, 40.0 °C, 40.0 h) amounted to 74%.

Regarding `COc1ccc2nc(CO)c3c(c2c1Cl)CC[C@]1(C[C@H]2C(=O)N[C@]4(C(=O)NS(=O)(=O)C5(C)CC5)C[C@H]4C=CCCCCC[C@H](NC(=O)OC(C)(C)C)C(=O)N2C1)O3`, the ring closure, yield of all isomers in series [1] (from C=CCCCCC[C@H](NC(=O)OC(C)(C)C)C(=O)N1C[C@@]2(CCc3c(c(CO)nc4ccc(OC)c(Cl)c34)O2)C[C@H]1C(=O)N[C@]1(C(=O)NS(=O)(=O)C2(C)CC2)C[C@H]1C=C, Zhan's catalyst, DCE, 1.91 mM, 65.0 °C, 3.0 h) came out at 25.9%.

In series [1] (from C=CCCCCC[C@H](NC(=O)OC(C)(C)C)C(=O)N1C[C@@]2(CCc3c(c(C4CC4)nc4ccc(OC)cc34)O2)C[C@H]1C(=O)N[C@]1(C(=O)NS(=O)(=O)C2(C)CC2)C[C@H]1C=C, Zhan's catalyst, DCE, 2.48 mM, 75.0 °C, 4.0 h), `COc1ccc2nc(C3CC3)c3c(c2c1)CC[C@]1(C[C@H]2C(=O)N[C@]4(C(=O)NS(=O)(=O)C5(C)CC5)C[C@H]4/C=C\CCCCC[C@H](NC(=O)OC(C)(C)C)C(=O)N2C1)O3` [Example 16, tert-Butyl (2R,6S,13aS,14aR,16aS,Z)-5′-cyclopropyl-9′-methoxy-14a-(1-methylcyclopropylsulfonylcarbamoyl)-5,16-dioxo-1′,2′,3,5,6,7,8,9,10,11,13a,14,14a,15,16, 16a-hexadecahydro-1H-spiro[cyclopropa[e]pyrrolo[1,2-a][1,4]diazacyclopentadecine-2,3′-pyrano[2,3-c]quinoline]-6-ylcarbamate] had a ring closure, yield of all isomers of 82.6%. For the same molecule, the concentration giving a half-maximal response (EC50) in series [3] came out at 0.69 nM. The IC50 in series [4] was found to be 0.009 nM.

For `COCC1(S(=O)(=O)NC(=O)[C@@]23C[C@H]2/C=C\CCCCC[C@H](NC(=O)OC(C)(C)C)C(=O)N2C[C@@]4(CCc5c(c(C(F)(F)F)nc6ccc(OC)cc56)O4)C[C@H]2C(=O)N3)CC1` [Example 49, tert-Butyl ((2R,6S,13AS,14AR,16AS,Z)-9′-methoxy-14a-(((1-(methoxymethyl)cyclopropyl)sulfonyl)carbamoyl)-5,16-dioxo-5′-(trifluoromethyl)-1′,2′,3,5,6,7,8,9,10,11, 13A,14,14A,15,16,16A-hexadecahydro-1H-spiro[cyclopropa[e]pyrrolo[1,2-A][1,4]diazacyclopentadecine-2,3′-pyrano[2,3-c]quinolin]-6-yl)carbamate], in series [1] (from C=CCCCCC[C@H](NC(=O)OC(C)(C)C)C(=O)N1C[C@@]2(CCc3c(c(C(F)(F)F)nc4ccc(OC)cc34)O2)C[C@H]1C(=O)N[C@]1(C(=O)NS(=O)(=O)C2(COC)CC2)C[C@H]1C=C, Zhan's catalyst, DCE, 2.9 mM, 80.0 °C, 4.0 h), the ring closure, yield of all isomers is 33%. Also, the half-maximal effective concentration (EC50) in series [3] came out at 9.13 nM. Also, in series [4], inhibition was half-maximal at 0.014 nM (IC50).
